Test results as given in US20260306500A1, “METHOD OF INHIBITING ADENOSINE TRIPHOSPHATE SECRETION, METHOD OF INHIBITING HEPATIC STELLATE CELL ACTIVATION, METHOD OF DEACTIVATING HEPATIC STELLATE CELL, METHOD OF TREATING HEPATIC FIBROSIS, METHOD OF TREATING NON-ALCOHOLIC STEATOHEPATITIS, AND METHOD OF TREATING PSORIASIS” (Kurume University, priority 2023, published 2026).
Structures can show the parent of a compound that is named as a salt.

Experiments:
[1] = tested on: chromaffin granule membrane; test: ATP transport (uptake of radiolabeled ATP) in chromaffin granule membrane vesicles; type: biochemical, cattle; conditions: role: inhibitor, MANT-ATP
Method: (§1) Chromaffin granule membranes were prepared from adrenal glands collected from slaughtered cattle according to Reference A (Nathan Nelson et al., 1988, Chromaffin Granule Proton Pump, Methods in Enzymology, 157, 619-633). Chromaffin granule membranes prepared by sucrose density gradient centrifugation were suspended in 2 ml of SME buffer (20 mM MOPS-tris (pH 7.0), 0.3 M sucrose, 5 mM EDTA, 10 μg/ml leupeptin, and 10 μg/ml pepstatin)+25% glycerol, and the resulting suspension was aliquoted and stored at −80° C. Under these conditions, the ATP transport activity, the V-ATPase activity, and the catecholamine transport activity remain fully active for at least one year.
An ATP transport inhibition experiment for the chromaffin granule membrane was carried out according to Reference B (Yoshinori Moriyama et al., 2022, Is the vesicular nucleotide transporter a molecular target of eicosapentaenoic acid?, Frontiers in Pharmacology, 103389). About 20 μg of chromaffin granule membranes were added to 0.5 ml of measurement buffer (20 mM MOPS-tris (pH 7.0), 0.3 M sucrose, 5 mM potassium chloride, 5 mM magnesium acetate, 5 mM creatine phosphate, 10 units of creatine kinase, and 1 mM 3[H]-ATP [15 KBq/assay]), followed by incubation at 30° C. for 1 hour. Through a Millipore MCE membrane filter with a pore size […], 0.2 ml of the reaction liquid was filtered by suction. Thereafter, the filter was washed with 10 ml of 20 mM MOPS-tris (pH 7.0), 0.3 M sucrose, 5 mM potassium chloride, and 5 mM magnesium acetate, and dissolved in 10 ml of Clear-sol II (manufactured by Nacalai Tesque, Inc.). The radioactivity was then measured using a liquid scintillation counter (N=3).
The reaction was initiated by adding 50 mM ^3[H]-ATP to a final concentration of 1 mM. The 50 mM ^3[H]-ATP was prepared by mixing an ATP-tris solution (manufactured by Sigma-Aldrich) with [2,8-^3H]adenosine triphosphate tetrasodium salt (26.0 Ci/mmol) (manufactured by New England Nuclear). PEP was used as a test reagent, and pyruvic acid was used as a negative control. Five minutes before the addition of ATP, PEP or pyruvic acid, as a solution in 20 mM MOPS-tris (pH 7.0), 0.3 M sucrose, 5 mM potassium chloride, and 5 mM magnesium acetate, was added to the measurement liquid to a final PEP concentration of 0.02, 0.05, 0.1, 0.2, 0.4, or 1 mM, or to a final pyruvic acid concentration of 0.5 or 1 mM.
(§2) Chromaffin granule membrane vesicles were prepared in the same manner as in Example 5, and uptake of radiolabeled ATP into the vesicles was measured. Transport activity of catecholamine (dopamine) and ATP-dependent proton transport by V-ATPase were also measured in the same manner as in Example 5.

[2] = tested on: catecholamine transport of chromaffin granule membranes; test: Catecholamine (dopamine) transport in chromaffin granule membranes; type: biochemical, cattle; conditions: role: inhibitor; MANT-ATP, N=3 (FIG. 11)
Method: as §1
A catecholamine transport inhibition experiment was carried out in the same manner as the ATP transport experiment except that the experiment used a measurement liquid containing 20 mM MOPS-tris (pH 7.0), 0.1 M sucrose, 0.1 M potassium chloride, 5 mM magnesium acetate, and about 5 μg of chromaffin granule membranes. To 0.5 ml of the measurement liquid, 2 mM ATP was added, and the resulting mixture was incubated at 30° C. for about 5 minutes, followed by addition of 3[H]-dopamine thereto to a final concentration of 10 μM. After further incubation at 30° C. for 15 minutes, 0.2 ml of the reaction liquid was subjected to suction filtration through a Millipore MCE membrane filter with a pore size of 0.45 μm, and the radioactivity on the filter was measured (N=3). The substrate, 3[H]-dopamine, was prepared by mixing 3,4-[RING-2,5,6-^3H]dihydroxyphenylethylamine (dopamine) (30 Ci/mmol) (manufactured by New England Nuclear) with dopamine hydrochloride (manufactured by LKT Laboratories) such that a final concentration of […] was achieved during the use.
as §2

V-ATPase [3] = target: T1, V-ATPase (Bos taurus, UniProt P31404+P31408); test: ATP-dependent proton transport by V-ATPase (acridine orange fluorescence quenching); type: biochemical, cattle
T1 construct: Chromaffin granule membranes were prepared from adrenal glands collected from slaughtered cattle; from tissue; host or cells: cattle adrenal glands, chromaffin granule membranes (sucrose density gradient)
Method: as §1
ATP-dependent proton transport by V-ATPase was measured according to Reference B. Proton transport activity was measured using a spectrofluorometer at excitation wavelength of 492 nm and a fluorescence wavelength 540 nm, wherein fluorescence quenching of acridine orange was used as an index (N=2). The transmembrane potential generated was measured using a spectrofluorometer at an excitation wavelength of 580 nm and a fluorescence wavelength of 630 nm, wherein fluorescence quenching of oxonol-V was used as an index (N=2). The acridine measurement liquid (2 ml) contained 20 mM MOPS-tris (pH 7.0), 0.2 M sucrose, 0.1 M potassium chloride, 5 mM magnesium acetate, 0.2 μg valinomycin, 2 μM acridine orange, and about 20 μg of chromaffin granules. The oxonol-V measurement liquid (2 ml) contained 20 mM MOPS-tris (pH 7.0), 0.3 M sucrose, 5 mM magnesium acetate, 5 μM oxonol-V, and about 20 μg of chromaffin granules.
as §2

[4] = tested on: ATP-loaded vesicles of keratinocytes; test: Accumulation of MANT-ATP in granules of keratinocytes (confocal microscopy); type: cell-based, human; conditions: 0.3 mM MANT-ATP, control without imeglimin (FIG. 13)
Method: Keratinocytes were cultured in the same manner as in Example 8. Keratinocytes were cultured at 4×10^4 cells/ml in a glass-bottom dish (35 mm, manufactured by Matsunami Glass Ind., Ltd.) at 37° C. in 5% CO2 for 2 days. The culture medium was then replaced with a medium supplemented with MANT-ATP (manufactured by Invitrogen) at a final concentration of 0.3 mM, and further incubation was performed for 4.5 hours. Subsequently, imeglimin was added thereto to a final concentration of 10 μM, and further incubation was performed at 37° C. in 5% CO2 for 19 hours. Thereafter, the cells were washed twice with HBSS (manufactured by Gibco) and observed using an inverted confocal laser microscope (FV-1000 OSR, manufactured by Olympus Corporation).

[5] = tested on: human epidermal keratinocytes; test: ATP secretion from human epidermal keratinocytes promoted by ionomycin; type: cell-based
Method: Human epidermal keratinocytes (Cryopreserved HEK, Lot 1758, Cell Applications Inc.) were cultured using an Epivita Keratinocyte Growth Medium Kit according to the manufacturer's instructions. The procedure was as follows. A supplement medium was added to a hydrocortisone-containing basal medium included in the medium preparation kit to prepare a complete medium. The medium in the dish was removed by aspiration. The cells were washed with 5 ml of BSS (Gbco), and then the BSS was removed by aspiration. After addition of 5 to 6 ml of trypsin/EDTA solution (Gbco), the dish was incubated at 37° C. for 2 minutes. After addition of 5 ml of trypsin neutralization solution, the resulting cell suspension was transferred into two 15-ml Falcon tubes, and centrifuged at 200×g for 5 minutes. The supernatant was removed by aspiration, and the pelleted cell cluster was suspended in 2 ml of the medium at 4.5×10^5 cells/ml. An aliquot of the resulting cell suspension was cryopreserved, while another aliquot was cultured and subjected to measurement.
ATP secretion by human epidermal keratinocytes (hereinafter referred to as “keratinocytes”) was measured. Regarding control solutions, Krebs-Ringer HEPES supplemented with 0.2% BSA and 25 mM glucose (hereinafter also referred to as “Krebs/Iono(−)”) was used as a negative control, and a solution prepared by adding 5 μM ionomycin to this solution (hereinafter also referred to as “Krebs/Iono(+)”) was used as a positive control for ATP secretion. Ionomycin is a Ca^2+ ionophore. Addition of ionomycin to cells is known to promote influx of extracellular Ca^2+ into the cells to increase the intracellular Ca^2+ concentration, resulting in enhancement of ATP secretion. Test solutions were prepared by adding clodronate to Krebs/Iono(−) or Krebs/Iono(+) to a final concentration of 0.1 μM (hereinafter also referred to as “Clo/Iono(−)” or “Clo/Iono(+)”, respectively) (N=3).
Keratinocytes were cultured at 2.5×10^4 cells/well in a 24-well plate at 37° C. in 5% CO2 for 4 days. The medium was removed by aspiration, replaced with Krebs/Iono(−) or Clo/Iono(−), and incubated at 37° C. for 6 hours. These solutions were then removed by aspiration, and the content of each well incubated with Krebs/Iono(−) was replaced with 300 μl of a control solution (Krebs/Iono(−) or Krebs/Iono(+)), while the content of each well incubated with Clo/Iono(−) was replaced with 300 μl of a test solution (Clo/Iono(−) or Clo/Iono(+)). After further incubation at 37° C. for 20 minutes, 200 μl of the supernatant was collected. The collected supernatant was immediately treated on a heat block at 95° C. for 10 minutes, to inactivate ectonucleotidase. ATP in the supernatant was quantified using a Dojindo ATP assay kit−Luminescence (manufactured by Dojindo Laboratories).
Keratinocytes were cultured in the same manner as in Example 1, and ATP secretion from the keratinocytes was measured. Krebs/Iono(−), or a solution prepared by adding 10 μM imeglimin, 0.1 μM eicosapentaenoic acid (EPA), 1 μM EPA, or 10 μM clodronate to Krebs/Iono(−) was used (N=4).
After culturing keratinocytes, the medium was removed by aspiration, and replaced with Krebs/Iono(−), or Krebs/Iono(−) supplemented with 10 μM imeglimin, 0.1 μM EPA, 1 μM EPA, or 10 μM clodronate, followed by incubation for 6 hours. Subsequently, the solution was replaced with either a control solution (Krebs/Iono(−) or Krebs/Iono(+)) or a test solution (Krebs/Iono(+) supplemented with 10 μM imeglimin, 0.1 μM EPA, 1 μM EPA, or 10 μM clodronate), followed by incubation at 37° C. for 20 minutes and then collection of 200 μl of the supernatant. The collected supernatant was immediately treated on a heat block at 95° C. for 10 minutes to inactivate ectonucleotidase. ATP in the supernatant was quantified using a Dojindo ATP assay kit—Luminescence (manufactured by Dojindo Laboratories). […]

[6] = tested on: human epidermal keratinocytes; test: ATP secretion from keratinocytes upon LPS stimulation; type: cell-based; conditions: 10 μM, 18 hours, 10 μg/ml LPS, N=8 (FIG. 8)
Method: Keratinocytes were cultured in the same manner as in Example 1. Keratinocytes were cultured at 2.5×10^4 cells/well in a 24-well plate at 37° C. in 5% CO2 for 4 days. The medium was replaced with a test solution (Hanks' balanced salt solution (HBSS) (manufactured by Gibco) supplemented with imeglimin, metformin, or clodronate), and then incubation was performed at 37° C. in 5% CO2 for 18 hours. Thereafter, LPS (10 μg/ml) was added thereto, and incubation was further carried out for 10 minutes, followed by collection of 200 μl of the supernatant. The supernatant was immediately treated on a heat block at 95° C. for 10 minutes, and ATP in the supernatant was quantified using an ATP Assay Kit−Luminescence (manufactured by Dojindo) (N=8).

VNUT = test: Inhibitory effect on VNUT (data not shown)
V-ATPase [7] = test: Inhibitory effect on V-ATPase (data not shown)

T1 sequence (P31404 whole entry, looked up): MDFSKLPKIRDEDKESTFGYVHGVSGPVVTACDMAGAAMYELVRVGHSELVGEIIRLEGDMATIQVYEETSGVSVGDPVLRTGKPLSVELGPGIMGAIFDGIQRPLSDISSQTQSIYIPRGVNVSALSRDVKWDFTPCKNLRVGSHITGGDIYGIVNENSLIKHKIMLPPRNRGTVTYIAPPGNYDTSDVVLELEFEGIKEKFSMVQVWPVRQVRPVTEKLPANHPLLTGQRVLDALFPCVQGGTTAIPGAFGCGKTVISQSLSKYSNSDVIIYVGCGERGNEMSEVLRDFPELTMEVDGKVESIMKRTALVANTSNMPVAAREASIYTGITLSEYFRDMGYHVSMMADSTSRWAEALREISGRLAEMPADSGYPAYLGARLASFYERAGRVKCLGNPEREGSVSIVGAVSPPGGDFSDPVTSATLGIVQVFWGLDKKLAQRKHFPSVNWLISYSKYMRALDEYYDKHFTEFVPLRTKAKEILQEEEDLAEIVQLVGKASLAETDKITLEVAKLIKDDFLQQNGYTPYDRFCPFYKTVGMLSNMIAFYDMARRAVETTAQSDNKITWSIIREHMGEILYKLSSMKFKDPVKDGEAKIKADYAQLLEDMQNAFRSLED
T1 sequence (P31408 whole entry, looked up): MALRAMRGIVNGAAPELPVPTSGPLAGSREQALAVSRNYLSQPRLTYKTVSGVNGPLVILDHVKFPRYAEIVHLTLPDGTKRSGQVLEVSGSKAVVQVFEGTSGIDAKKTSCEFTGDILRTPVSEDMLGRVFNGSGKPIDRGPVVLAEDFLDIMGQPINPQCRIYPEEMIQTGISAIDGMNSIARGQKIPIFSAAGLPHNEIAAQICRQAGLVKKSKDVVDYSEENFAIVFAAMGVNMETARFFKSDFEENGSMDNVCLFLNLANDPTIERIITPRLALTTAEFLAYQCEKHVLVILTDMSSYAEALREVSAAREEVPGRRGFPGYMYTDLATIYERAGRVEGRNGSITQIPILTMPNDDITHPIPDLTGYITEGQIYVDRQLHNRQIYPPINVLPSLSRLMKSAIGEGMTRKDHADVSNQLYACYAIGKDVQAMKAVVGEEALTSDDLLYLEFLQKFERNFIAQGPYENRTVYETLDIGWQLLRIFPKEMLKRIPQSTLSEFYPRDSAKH

IC50 ([1]; radiolabeled ATP, N=3 (FIG. 10), read-out: ID50 of ATP transport)	effect on ATP-dependent proton transport by V-ATPase (V-ATPase [3]; role: inhibitor, MANT-ATP up to 100 μM, N=1 (FIG. 12))	quenching of acridine orange fluorescence (V-ATPase [3]; role: substrate, 0.1 mM MANT-ATP)	total acridine orange fluorescence quenching (V-ATPase [3]; role: substrate, 0.1 mM MANT-ATP followed by addition of ATP)	SMILES	mode of inhibition of ATP transport by VNUT [1]	ATP transport ([1]; radiolabeled ATP, N=3 (FIG. 10))	effect on catecholamine transport system [2]	accumulation in the granules in keratinocytes [4]	ATP secretion inhibitory effect at low concentration ([5]; 0.1 μM, 6 h preincubation, ionomycin)	ATP secretion inhibitory effect at higher concentrations ([5]; up to 10 μM metformin)	LPS-stimulated ATP secretion [6]	inhibitory effect on VNUT (VNUT)	inhibitory effect on V-ATPase (V-ATPase [7])
~30 mM	did not affect	34%	61.8%	CNc1ccccc1C(=O)O[C@H]1[C@@H](O)[C@H](n2cnc3c(N)ncnc32)O[C@@H]1COP(=O)(O)OP(=O)(O)OP(=O)(O)O [MANT-ATP, 2′/3′-O—(N-methyl-anthraniloyl)-adenosine-5′-triphosphate triethylammonium salt]	competitively inhibits	strongly inhibited ATP transport	hardly affected	accumulation of MANT-ATP in the granules	–	–	–	–	–
–	–	–	–	CN(C)C(=N)NC(=N)N [metformin]	–	–	–	–	exhibit an ATP secretion inhibitory effect	decreased inhibitory effect at higher concentrations	almost completely inhibited	neither imeglimin nor metformin exhibited a strong inhibitory effect	neither imeglimin nor metformin exhibited a strong inhibitory effect
